# ChEMBL document CHEMBL5614422, “Design, synthesis and biological evaluation of N-salicyloyl tryptamine derivatives as multifunctional neuroprotectants for the treatment of ischemic stroke” (Eur J Med Chem, 2024)
# Active and inactive are the calls of the source. No cut-off for these calls is given here.
# What was measured:
# [1] = Antioxidant activity assessed as trolox equivalent of ORAC radical scavenging activity at 0.125 to 2 uM by AAPH based automatic microplate reader analysis; assay type: functional; conditions: dose 0.125-2 µM
# Mus musculus [2] = assay: Neuroprotective activity against MCAO-R induced 12 hrs fasted male C57BL/6J mouse model assessed as reduction in infarct volume at 25 mg/kg, ip for 7 days by TTC staining based analysis; assay type: functional, organism-based; conditions: time 7.0 day
# Mus musculus [3] = assay: Neuroprotective activity against MCAO-R induced 12 hrs fasted male C57BL/6J mouse model assessed as reduction in neurologic deficit score administered as ip once a day for 7 days by TTC staining based analysis; assay type: functional, organism-based; conditions: time 7.0 day
# HT-22 [4] = assay: Upregulation of GPX4 protein level in OGD/R induced mouse HT-22 cells at 10 uM in presence of ML385 by Western blot analysis; assay type: functional, cell-based
# HT-22 [5] = assay: Upregulation of HO-1 protein level in OGD/R induced mouse HT-22 cells at 1 to 10 uM by Western blot analysis; assay type: functional, cell-based; conditions: dose 1-10 µM
# HT-22 [6] = assay: Upregulation of Nrf2 mRNA level in OGD/R induced mouse HT-22 cells at 1 to 10 uM by qRT-PCR analysis; assay type: functional, cell-based; conditions: dose 1-10 µM
# Mus musculus [7] = assay: Neuroprotective activity against MCAO-R induced 12 hrs fasted male C57BL/6J mouse model assessed as decrease in S100 expression in DG by measuring decrease in fluorescence intensity administered once a day as ip dose for 7 days by immunofluorescence method; assay type: functional, organism-based; conditions: dose 10-50 mg/kg, time 7.0 day
# HT-22 [8] = assay: Cytoprotective activity against OGD/R induced mouse HT-22 cells assessed as increase in cell viability at 10 uM measured after 24 hrs in presence of ML385 by MTT assay; assay type: functional, cell-based
# Mus musculus [9] = assay: In vivo activation of Nrf2 pathway in MCAO-R induced 12 hrs fasted male C57BL/6J mouse model assessed as increase in GCLC expression level at 10 to 50 mg/kg, ip by Western blot analysis; assay type: functional, organism-based; conditions: dose 10-50 mg/kg
# HT-22 [10] = assay: Anti-apoptotic activity in OGD/R mouse HT-22 cells assessed as reduction in proportion of apoptic cells by annexin V-FITC and PI staining based flow cytometry analysis; assay type: functional, cell-based; conditions: dose 1-10 µM
# BV-2 [11] = assay: Anti-inflammatory activity against OGD/R and erastin induced ferroptosis in mouse BV-2 cells assessed as inhibition of TNF-alpha production preincubated for 6 hrs followed by OGD addition and measured after 1 hr by ELISA method; assay type: functional, cell-based; conditions: dose 10-40 µM, time 7.0 hrs
# HT-22 [12] = assay: Upregulation of Nrf2 protein level in OGD/R induced mouse HT-22 cells at 10 uM in presence of ML385 by Western blot analysis; assay type: functional, cell-based
# HT-22 [13] = assay: Upregulation of Nrf2 protein level in OGD/R induced mouse HT-22 cells at 1 to 10 uM by Western blot analysis; assay type: functional, cell-based; conditions: dose 1-10 µM
# HT-22 [14] = assay: Antioxidant activity against OGD/R induced damage in mouse HT-22 cells assessed as decrease in proportion of mitochondrial depolarized cells by JC-1 fluorescence based flow cytometry analysis; assay type: functional, cell-based; conditions: dose 1-10 µM
# HT-22 [15] = assay: Antioxidant activity against OGD/R induced oxidative stress in mouse HT-22 cells assessed as decrease in MDA content by absorbance based automatic microplate reader analysis; assay type: functional, cell-based
# Mus musculus [16] = assay: Neuroprotective activity against MCAO-R induced 12 hrs fasted male C57BL/6J mouse model assessed as increase in SOD activity in cerebral ischemic tissue at 10 to 50 mg/kg, ip administered once a day for 7 days; assay type: functional, organism-based; conditions: dose 10-50 mg/kg, time 7.0 day
# HT-22 [17] = assay: Anti-ferroptotic activity against OGD/R induced mouse HT-22 cells decrease as in Fe2+ level at 10 uM by cell ferrous calorimetry analysis; assay type: functional, cell-based
# HT-22 [18] = assay: Upregulation of GPX4 protein level in OGD/R induced mouse HT-22 cells at 1 to 10 uM by Western blot analysis; assay type: functional, cell-based; conditions: dose 1-10 µM
# HT-22 [19] = assay: Cytoprotective activity against OGD/R induced mouse HT-22 cells assessed as inhibition of intracellular LDH release at 10 uM; assay type: functional, cell-based
# Mus musculus [20] = organism: Mus musculus; assay: Antiinflammatory activity in MCAO-R induced 12 hrs fasted male C57BL/6J mouse model assessed as reduction in IL-6 level by ELISA method; assay type: functional, organism-based
# HT-22 [21] = assay: Anti-ferroptotic activity against OGD/R induced mouse HT-22 cells decrease as in Fe2+ level at 10 uM in presence of ML385 by cell ferrous calorimetry analysis; assay type: functional, cell-based
# HT-22 [22] = assay: Cytoprotective activity against OGD/R induced mouse HT-22 cells assessed as inhibition of intracellular LDH release at 10 uM in presence of ML385; assay type: functional, cell-based
# Mus musculus [23] = assay: Neuroprotective activity against MCAO-R induced 12 hrs fasted male C57BL/6J mouse model assessed as decrease in S100 expression in CA1 by measuring decrease in fluorescence intensity administered once a day as ip dose for 7 days by immunofluorescence method; assay type: functional, organism-based; conditions: dose 10-50 mg/kg, time 7.0 day
# Mus musculus [24] = assay: Neuroprotective activity against MCAO-R induced 12 hrs fasted male C57BL/6J mouse model assessed as reduction in neurologic deficit score at 10 to 50 mg/kg, ip for 7 days by […]; assay type: functional, organism-based; conditions: dose 10-50 mg/kg, time 7.0 day
# HT-22 [25] = assay: Antioxidant activity against OGD/R induced oxidative stress in mouse HT-22 cells assessed as reduction in ROS release level at 10 uM in presence of ML385by DCFH-DA staining based flow cytometry analysis; assay type: functional, cell-based
# [26] = Antioxidant activity assessed as free radical scavenging activity at 40 to 80 uM incubated in dark for 30 mins under shaking condition by DPPH assay; assay type: functional; conditions: dose 40-80 µM
# BV-2 [27] = assay: Anti-inflammatory activity against OGD/R and erastin induced ferroptosis in mouse BV-2 cells assessed as inhibition of IL-18 production preincubated for 6 hrs followed by OGD addition and measured after 1 hr by ELISA method; assay type: functional, cell-based; conditions: dose 10-40 µM, time 7.0 hrs
# HT-22 [28] = assay: Anti-ferroptotic activity against OGD/R induced mouse HT-22 cells decrease in MDA level at 10 uM in presence of ML385; assay type: functional, cell-based
# [29] = molecular target: Phospholipid hydroperoxide glutathione peroxidase GPX4 (Mus musculus) (UniProt O70325); assay: In vivo activation of Nrf2 pathway in MCAO-R induced 12 hrs fasted male C57BL/6J mouse model assessed as increase in GPX4 expression level at 10 to 50 mg/kg, ip by Western blot analysis; assay type: functional, organism-based; conditions: dose 10-50 mg/kg
# Mus musculus [30] = organism: Mus musculus; assay: Antiinflammatory activity in MCAO-R induced 12 hrs fasted male C57BL/6J mouse model assessed as reduction in TNF-alpha level by ELISA method; assay type: functional, organism-based
# BV-2 [31] = assay: Anti-inflammatory activity against OGD/R and erastin induced ferroptosis in mouse BV-2 cells assessed as inhibition of IL-6 production preincubated for 6 hrs followed by OGD addition and measured after 1 hr by ELISA method; assay type: functional, cell-based; conditions: dose 10-40 µM, time 7.0 hrs
# HT-22 [32] = assay: Anti-ferroptotic activity in mouse HT-22 cells assessed as prevention of erastin-induced cell death at 1 to 10 uM by MTT assay; assay type: functional, cell-based; conditions: dose 1-10 µM
# HT-22 [33] = assay: Anti-ferroptotic activity against OGD/R induced mouse HT-22 cells increase in GSH level at 10 uM; assay type: functional, cell-based
# HT-22 [34] = assay: Cytoprotective activity against OGD/R induced mouse HT-22 cells assessed as increase in cell viability at 10 uM measured after 24 hrs by MTT assay; assay type: functional, cell-based
# Sequence of Phospholipid hydroperoxide glutathione peroxidase GPX4 (Mus musculus) (O70325 whole entry): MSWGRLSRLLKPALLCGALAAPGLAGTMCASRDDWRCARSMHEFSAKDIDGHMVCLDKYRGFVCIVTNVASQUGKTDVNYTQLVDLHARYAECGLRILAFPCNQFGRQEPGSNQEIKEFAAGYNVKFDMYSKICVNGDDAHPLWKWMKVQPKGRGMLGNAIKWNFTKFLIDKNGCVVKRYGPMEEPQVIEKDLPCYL
compound,measurement,setting,value
Cc1ccc(C(=O)NCCc2c[nH]c3ccc(N(C)C)cc23)c(O)c1,Activity,[1],5.2
same,Activity,Mus musculus [2],Active
same,Activity,Mus musculus [3],Dose-Dependent Effect
same,Activity,HT-22 [4],inactive
same,Activity,HT-22 [5],Active
same,Activity,HT-22 [6],Active
same,Activity,Mus musculus [7],Dose-Dependent Effect
same,Activity,HT-22 [8],inactive
same,Activity,Mus musculus [9],Active
same,Activity,HT-22 [10],Dose-Dependent Effect
same,Activity,BV-2 [11],Dose-Dependent Effect
same,Activity,HT-22 [12],inactive
same,Activity,HT-22 [13],Active
same,Activity,HT-22 [14],Dose-Dependent Effect
same,Activity,HT-22 [15],Active
same,Activity,Mus musculus [16],Active
same,Activity,HT-22 [17],Active
same,Activity,HT-22 [18],Active
same,Activity,HT-22 [19],Active
same,Activity,Mus musculus [20],Active
same,Activity,HT-22 [21],inactive
same,Activity,HT-22 [22],inactive
same,Activity,Mus musculus [23],Dose-Dependent Effect
same,Activity,Mus musculus [24],Active
same,Activity,HT-22 [25],inactive
same,Activity,[26],Active
same,Activity,BV-2 [27],Dose-Dependent Effect
same,Activity,HT-22 [28],inactive
same,Activity,[29],Active
same,Activity,Mus musculus [30],Active
same,Activity,BV-2 [31],Dose-Dependent Effect
same,Activity,HT-22 [32],Active
same,Activity,HT-22 [33],Active
same,Activity,HT-22 [34],Active
